Source: the supplement of paper PMC10307832

Key:
Test in all cases: relative viability (nuclei count vs DMSO), 5 days (fraction); higher = more cells survive
CAL-12T = system: CAL-12T
Summary of the method: (§1)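 Relative viability divides the nuclei count in treated wells by that in vehicle wells. Lung cancer cell lines were seeded in 1536-well plates, dosed by pin tool the next day, and fixed and stained after 5 days in one step with final 0.05% Triton X-100, 1% formaldehyde and 1 ug/ml Hoechst. Dosing was a single drug or a fixed anchor-drug dose plus five library-drug doses (not always all listed) in √10 steps, and values are medians of duplicate plates imaged at 4×.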

COR-L 105 = system: COR-L 105
Summary of the method: as §1

H3255 = system: H3255
Summary of the method: as §1

HARA = system: HARA
Summary of the method: as §1

HCC-15 = system: HCC-15
Summary of the method: as §1

HCC-366 = system: HCC-366
Summary of the method: as §1

LC-2-ad = system: LC-2-ad
Summary of the method: as §1

LU99A = system: LU99A
Summary of the method: as §1

NCI-H1395 = system: NCI-H1395
Summary of the method: as §1

NCI-H1666 = system: NCI-H1666
Summary of the method: as §1

NCI-H1734 = system: NCI-H1734
Summary of the method: as §1

NCI-H1944 = system: NCI-H1944
Summary of the method: as §1

NCI-H1975 = system: NCI-H1975
Summary of the method: as §1

NCI-H1993 = system: NCI-H1993
Summary of the method: as §1

NCI-H2228 = system: NCI-H2228
Summary of the method: as §1

NCI-H3122 = system: NCI-H3122
Summary of the method: as §1

NCI-H520 = system: NCI-H520
Summary of the method: as §1

NCI-H647 = system: NCI-H647
Summary of the method: as §1

NCI-H661 = system: NCI-H661
Summary of the method: as §1

NCI-H838 = system: NCI-H838
Summary of the method: as §1

PC-14 = system: PC-14
Summary of the method: as §1

PC-3 [JPC-3] = system: PC-3 [JPC-3]
Summary of the method: as §1

SK-LU-1 = system: SK-LU-1
Summary of the method: as §1

O=c1[nH]c2ccccc2n1C1CCN(CCCC(c2ccc(F)cc2)c2ccc(F)cc2)CC1 [Pimozide] + Cc1cc(Nc2cc(N3CCN(C)CC3)nc(Sc3ccc(NC(=O)C4CC4)cc3)n2)n[nH]1 [Tozasertib] (partner 0.1 µM)
relative viability (CAL-12T; first compound 0.08 µM): 0.308
relative viability (CAL-12T; first compound 0.253 µM): 0.312
relative viability (CAL-12T; first compound 0.8 µM): 0.308
relative viability (CAL-12T; first compound 2.53 µM): 0.318
relative viability (CAL-12T; first compound 8 µM): 0.427
relative viability (COR-L 105; first compound 0.253 µM): 0.327
relative viability (COR-L 105; first compound 0.8 µM): 0.367
relative viability (COR-L 105; first compound 2.53 µM): 0.301
relative viability (COR-L 105; first compound 8 µM): 0.239
relative viability (H3255; first compound 0.253 µM): 0.592
relative viability (H3255; first compound 0.8 µM): 0.47
relative viability (H3255; first compound 2.53 µM): 0.584
relative viability (H3255; first compound 8 µM): 0.659
relative viability (HARA; first compound 0.253 µM): 0.107
relative viability (HARA; first compound 0.8 µM): 0.111
relative viability (HARA; first compound 2.53 µM): 0.0907
relative viability (HARA; first compound 8 µM): 0.123
relative viability (HCC-15; first compound 0.08 µM): 0.403
relative viability (HCC-15; first compound 0.253 µM): 0.365
relative viability (HCC-15; first compound 0.8 µM): 0.322
relative viability (HCC-15; first compound 2.53 µM): 0.292
relative viability (HCC-15; first compound 8 µM): 0.201
relative viability (HCC-366; first compound 0.08 µM): 0.079
relative viability (HCC-366; first compound 0.253 µM): 0.0803
relative viability (HCC-366; first compound 0.8 µM): 0.142
relative viability (HCC-366; first compound 2.53 µM): 0.0868
relative viability (HCC-366; first compound 8 µM): 0.0997
relative viability (LC-2-ad; first compound 0.08 µM): 0.442
relative viability (LC-2-ad; first compound 0.253 µM): 0.455
relative viability (LC-2-ad; first compound 0.8 µM): 0.416
relative viability (LC-2-ad; first compound 2.53 µM): 0.385
relative viability (LC-2-ad; first compound 8 µM): 0.35
relative viability (LU99A; first compound 0.08 µM): 0.244
relative viability (LU99A; first compound 0.253 µM): 0.277
relative viability (LU99A; first compound 0.8 µM): 0.27
relative viability (LU99A; first compound 2.53 µM): 0.304
relative viability (LU99A; first compound 8 µM): 0.256
relative viability (NCI-H1395; first compound 0.08 µM): 0.846
relative viability (NCI-H1395; first compound 0.253 µM): 0.8
relative viability (NCI-H1395; first compound 0.8 µM): 0.617
relative viability (NCI-H1395; first compound 2.53 µM): 0.716
relative viability (NCI-H1395; first compound 8 µM): 0.676
relative viability (NCI-H1666; first compound 0.08 µM): 0.628
relative viability (NCI-H1666; first compound 0.253 µM): 0.571
relative viability (NCI-H1666; first compound 0.8 µM): 0.648
relative viability (NCI-H1666; first compound 2.53 µM): 0.559
relative viability (NCI-H1666; first compound 8 µM): 0.476
relative viability (NCI-H1734; first compound 0.08 µM): 0.277
relative viability (NCI-H1734; first compound 0.253 µM): 0.289
relative viability (NCI-H1734; first compound 2.53 µM): 0.255
relative viability (NCI-H1734; first compound 8 µM): 0.271
relative viability (NCI-H1944; first compound 0.08 µM): 0.251
relative viability (NCI-H1944; first compound 0.253 µM): 0.241
relative viability (NCI-H1944; first compound 0.8 µM): 0.242
relative viability (NCI-H1944; first compound 2.53 µM): 0.217
relative viability (NCI-H1944; first compound 8 µM): 0.23
relative viability (NCI-H1975; first compound 0.08 µM): 0.766
relative viability (NCI-H1975; first compound 0.253 µM): 0.67
relative viability (NCI-H1975; first compound 0.8 µM): 0.717
relative viability (NCI-H1975; first compound 2.53 µM): 0.618
relative viability (NCI-H1975; first compound 8 µM): 0.714
relative viability (NCI-H1993; first compound 0.08 µM): 0.555
relative viability (NCI-H1993; first compound 0.253 µM): 0.567
relative viability (NCI-H1993; first compound 0.8 µM): 0.612
relative viability (NCI-H1993; first compound 2.53 µM): 0.568
relative viability (NCI-H1993; first compound 8 µM): 0.58
relative viability (NCI-H2228; first compound 0.08 µM): 0.263
relative viability (NCI-H2228; first compound 0.253 µM): 0.262
relative viability (NCI-H2228; first compound 0.8 µM): 0.308
relative viability (NCI-H2228; first compound 2.53 µM): 0.172
relative viability (NCI-H2228; first compound 8 µM): 0.148
relative viability (NCI-H3122; first compound 0.08 µM): 0.397
relative viability (NCI-H3122; first compound 0.253 µM): 0.386
relative viability (NCI-H3122; first compound 0.8 µM): 0.353
relative viability (NCI-H3122; first compound 2.53 µM): 0.216
relative viability (NCI-H3122; first compound 8 µM): 0.378
relative viability (NCI-H520; first compound 0.08 µM): 0.503
relative viability (NCI-H520; first compound 0.253 µM): 0.422
relative viability (NCI-H520; first compound 0.8 µM): 0.42
relative viability (NCI-H520; first compound 2.53 µM): 0.435
relative viability (NCI-H520; first compound 8 µM): 0.366
relative viability (NCI-H647; first compound 0.08 µM): 0.24
relative viability (NCI-H647; first compound 0.253 µM): 0.327
relative viability (NCI-H647; first compound 0.8 µM): 0.264
relative viability (NCI-H647; first compound 2.53 µM): 0.221
relative viability (NCI-H647; first compound 8 µM): 0.214
relative viability (NCI-H661; first compound 0.08 µM): 0.354
relative viability (NCI-H661; first compound 0.253 µM): 0.376
relative viability (NCI-H661; first compound 0.8 µM): 0.339
relative viability (NCI-H661; first compound 2.53 µM): 0.35
relative viability (NCI-H661; first compound 8 µM): 0.316
relative viability (NCI-H838; first compound 0.08 µM): 0.271
relative viability (NCI-H838; first compound 0.253 µM): 0.287
relative viability (NCI-H838; first compound 0.8 µM): 0.31
relative viability (NCI-H838; first compound 2.53 µM): 0.276
relative viability (NCI-H838; first compound 8 µM): 0.323
relative viability (PC-14; first compound 0.253 µM): 0.539
relative viability (PC-14; first compound 0.8 µM): 0.481
relative viability (PC-14; first compound 2.53 µM): 0.519
relative viability (PC-14; first compound 8 µM): 0.552
relative viability (PC-3 [JPC-3]; first compound 0.08 µM): 0.557
relative viability (PC-3 [JPC-3]; first compound 0.253 µM): 0.875
relative viability (PC-3 [JPC-3]; first compound 0.8 µM): 0.754
relative viability (PC-3 [JPC-3]; first compound 2.53 µM): 0.771
relative viability (PC-3 [JPC-3]; first compound 8 µM): 0.788
relative viability (SK-LU-1; first compound 0.08 µM): 0.326
relative viability (SK-LU-1; first compound 0.253 µM): 0.323
relative viability (SK-LU-1; first compound 0.8 µM): 0.328
relative viability (SK-LU-1; first compound 2.53 µM): 0.29
relative viability (SK-LU-1; first compound 8 µM): 0.299
